Patent US20200216416A1, “QUINOLINE COMPOUNDS AS INHIBITORS OF TAM AND MET KINASES” (Array BioPharma Inc., priority 2019, published 2020)

How the values were obtained:
human MET kinase Y1230C = target: T1, human MET kinase Y1230C (Homo sapiens, UniProt P08581, Y1230C); assay: c-Met Enzyme Assay, Y1230C mutant; assay type: binding; conditions: averaged IC50; Y1230C 2 nM; 60-minute incubation at 22° C.; read-out: Y1230 C IC50
T1 construct: GST-tagged recombinant human MET kinase domain; purchased Signal Chem
T1 sequence (P08581 1078-1345 Y1230C): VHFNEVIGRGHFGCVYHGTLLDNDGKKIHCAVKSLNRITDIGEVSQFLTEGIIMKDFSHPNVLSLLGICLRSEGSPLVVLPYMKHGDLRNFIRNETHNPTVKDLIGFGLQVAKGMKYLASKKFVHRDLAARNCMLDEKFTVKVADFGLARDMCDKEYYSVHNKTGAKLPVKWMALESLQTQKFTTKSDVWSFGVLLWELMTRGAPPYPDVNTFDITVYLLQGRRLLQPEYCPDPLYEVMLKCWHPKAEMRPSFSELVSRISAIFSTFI
Summary of the method: (§1)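 LanthaScreen Eu TR-FRET binding: GST-tagged recombinant MET kinase domain incubated with compound, 50 nM Alexa-Fluor Tracer 236 and 2 nM Eu-anti-GST in 25 mM HEPES pH 7.4, 10 mM MgCl2, 1 mM DTT, 2% DMSO, 60 min at 22 °C. Ratiometric emission gave percent of control; IC50 from 4-parameter fit at 50 POC.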

human MET kinase D1228H = target: T2, human MET kinase D1228H (Homo sapiens, UniProt P08581, D1228H); assay: c-Met Enzyme Assay, D1228H mutant; assay type: binding; conditions: averaged IC50; D1228H 2 nM; 60-minute incubation at 22° C.; read-out: D1228 H IC50
T2 construct: GST-tagged recombinant human MET kinase domain; purchased Signal Chem
T2 sequence (P08581 1078-1345 D1228H): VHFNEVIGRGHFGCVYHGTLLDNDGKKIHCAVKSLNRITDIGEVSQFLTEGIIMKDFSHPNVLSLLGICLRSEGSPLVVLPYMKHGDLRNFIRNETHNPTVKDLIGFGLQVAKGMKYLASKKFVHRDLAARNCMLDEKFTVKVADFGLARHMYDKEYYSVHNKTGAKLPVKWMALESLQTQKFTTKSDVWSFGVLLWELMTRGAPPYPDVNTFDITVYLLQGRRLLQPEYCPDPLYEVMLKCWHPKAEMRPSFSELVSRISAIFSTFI
Summary of the method: as §1

human MET kinase D1228N = target: T3, human MET kinase D1228N (Homo sapiens, UniProt P08581, D1228N); assay: c-Met Enzyme Assay, D1228N mutant; assay type: binding; conditions: averaged IC50; D1228N 2 nM; 60-minute incubation at 22° C.; read-out: D1228 N IC50
T3 construct: GST-tagged recombinant human MET kinase domain; purchased Signal Chem
T3 sequence (P08581 1078-1345 D1228N): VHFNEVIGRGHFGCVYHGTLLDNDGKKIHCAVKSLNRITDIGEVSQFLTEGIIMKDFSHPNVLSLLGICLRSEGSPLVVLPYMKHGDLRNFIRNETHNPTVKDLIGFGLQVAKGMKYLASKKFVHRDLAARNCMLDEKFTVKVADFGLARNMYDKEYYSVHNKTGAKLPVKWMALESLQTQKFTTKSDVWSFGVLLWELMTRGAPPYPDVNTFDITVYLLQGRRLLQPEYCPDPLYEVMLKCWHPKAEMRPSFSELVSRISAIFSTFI
Summary of the method: as §1

human MET kinase Y1230H = target: T4, human MET kinase Y1230H (Homo sapiens, UniProt P08581, Y1230H); assay: c-Met Enzyme Assay, Y1230H mutant; assay type: binding; conditions: averaged IC50; Y1230H 5 nM; 60-minute incubation at 22° C.; read-out: Y1230 H IC50
T4 construct: GST-tagged recombinant human MET kinase domain; purchased Signal Chem
T4 sequence (P08581 1078-1345 Y1230H): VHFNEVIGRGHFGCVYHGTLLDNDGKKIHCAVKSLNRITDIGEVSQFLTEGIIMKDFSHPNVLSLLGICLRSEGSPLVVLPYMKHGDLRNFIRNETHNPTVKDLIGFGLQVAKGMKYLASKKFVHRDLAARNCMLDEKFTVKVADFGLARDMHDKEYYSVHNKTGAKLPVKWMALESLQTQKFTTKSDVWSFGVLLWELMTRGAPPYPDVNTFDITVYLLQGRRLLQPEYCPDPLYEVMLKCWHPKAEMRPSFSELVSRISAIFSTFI
Summary of the method: as §1

[1] = target: T5, His-tagged recombinant human MER cytoplasmic domain (Homo sapiens, UniProt Q12866); assay: MER Enzyme Assay (LanthaScreen Eu Kinase Binding); conditions: averaged IC50; MER 5 nM; 60-minute incubation at 22° C.; TR-FRET
T5 construct: His-tagged recombinant human MER cytoplasmic domain
T5 sequence (Q12866 527-999 limits assumed): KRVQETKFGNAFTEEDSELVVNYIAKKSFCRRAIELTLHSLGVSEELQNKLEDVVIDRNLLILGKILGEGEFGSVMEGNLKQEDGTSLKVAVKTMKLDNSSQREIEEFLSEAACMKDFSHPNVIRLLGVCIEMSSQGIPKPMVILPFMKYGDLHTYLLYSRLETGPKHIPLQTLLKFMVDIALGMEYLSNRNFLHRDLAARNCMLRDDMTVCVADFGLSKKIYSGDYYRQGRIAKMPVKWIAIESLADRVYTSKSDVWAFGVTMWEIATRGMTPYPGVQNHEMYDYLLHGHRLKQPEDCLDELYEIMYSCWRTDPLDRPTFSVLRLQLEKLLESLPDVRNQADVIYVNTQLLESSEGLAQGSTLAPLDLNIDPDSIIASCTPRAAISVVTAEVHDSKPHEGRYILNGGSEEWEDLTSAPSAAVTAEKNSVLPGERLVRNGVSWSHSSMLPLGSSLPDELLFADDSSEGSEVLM
Summary of the method: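 TR-FRET binding: 5 nM His-MER cytoplasmic domain with 20 nM Tracer 236, 2 nM biotin-anti-His and 2 nM Eu-streptavidin in pH 7.4 HEPES, 10 mM MgCl2, 2% DMSO, with threefold compound dilutions, 60 min at 22 °C. Percent of control was fit to a 4-parameter logistic, and IC50 was taken at 50 POC.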

[2] = target: T6, His-tagged recombinant human AXL cytoplasmic domain (Homo sapiens, UniProt P30530); assay: AXL Enzyme Assay (LanthaScreen Eu Kinase Binding); conditions: averaged IC50; 60-minute incubation at 22° C.; TR-FRET
T6 construct: His-tagged recombinant human AXL cytoplasmic domain
T6 sequence (P30530 473-894 limits assumed): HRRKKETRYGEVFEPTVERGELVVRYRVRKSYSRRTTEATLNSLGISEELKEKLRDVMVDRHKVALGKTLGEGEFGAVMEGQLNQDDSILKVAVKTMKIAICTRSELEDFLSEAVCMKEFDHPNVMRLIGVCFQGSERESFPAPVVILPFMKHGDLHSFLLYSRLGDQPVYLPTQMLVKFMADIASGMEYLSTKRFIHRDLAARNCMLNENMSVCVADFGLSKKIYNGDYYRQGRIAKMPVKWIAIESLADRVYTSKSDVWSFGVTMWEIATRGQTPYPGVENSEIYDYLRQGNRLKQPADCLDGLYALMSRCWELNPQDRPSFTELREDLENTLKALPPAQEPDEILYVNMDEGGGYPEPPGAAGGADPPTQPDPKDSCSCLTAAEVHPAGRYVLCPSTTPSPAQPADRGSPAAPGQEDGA
Summary of the method: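 TR-FRET binding-displacement format: 20 nM Alexa Fluor Tracer 236, 2 nM biotin-anti-His and 2 nM Eu-streptavidin in 25 mM HEPES pH 7.4, 10 mM MgCl2, 0.01% Triton X-100, 2% DMSO. After 60 min at 22 °C, ratiometric percent of control was fitted to a 4-parameter logistic curve, IC50 taken at 50 POC.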

human MET kinase Y1230S = target: T7, human MET kinase Y1230S (Homo sapiens, UniProt P08581, Y1230S); assay: c-Met Enzyme Assay, Y1230S mutant; assay type: binding; conditions: averaged IC50; Y1230S 8 nM; 60-minute incubation at 22° C.; read-out: Y1230 S IC50
T7 construct: GST-tagged recombinant human MET kinase domain; purchased Signal Chem
T7 sequence (P08581 1078-1345 Y1230S): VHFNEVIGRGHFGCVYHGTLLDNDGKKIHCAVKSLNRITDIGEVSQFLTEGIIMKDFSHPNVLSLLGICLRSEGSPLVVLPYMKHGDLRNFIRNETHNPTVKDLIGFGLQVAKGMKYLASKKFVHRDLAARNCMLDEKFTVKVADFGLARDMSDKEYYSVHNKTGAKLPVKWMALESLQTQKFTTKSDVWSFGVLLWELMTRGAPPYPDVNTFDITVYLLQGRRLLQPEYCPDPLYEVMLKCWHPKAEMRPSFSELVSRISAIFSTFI
Summary of the method: as §1

IC50 (human MET kinase Y1230C) [nM]	IC50 (human MET kinase D1228H) [nM]	IC50 (human MET kinase D1228N) [nM]	IC50 (human MET kinase Y1230H) [nM]	IC50 [1] [nM]	IC50 [2] [nM]	IC50 (human MET kinase Y1230S) [nM]	Structure (SMILES)
12.4	12.1	24.2	24.2	5	2	11.9	COc1cc2nccc(Oc3ccc(NC(=O)c4cn(C(C)C)cc(-c5ccc(F)c(F)c5)c4=O)nc3)c2cc1OC [Example 6]
2.8	1.8	4.8	4.4	8	3	2.3	COc1cc2nccc(Oc3ccc(NC(=O)c4cn(CCC(C)C)cc(-c5ccc(F)cc5F)c4=O)nc3)c2cc1OC [Example 36, 5-(2,4-difluorophenyl)-N-(5-((6,7-dimethoxyquinolin-4yl)oxy)pyridin-2-yl)-1-isopentyl-4-oxo-1,4-dihydropyridine-3-carboxamide]
3.1	3.7	4.1	6.1	8	4	2.8	CCCn1cc(C(=O)Nc2ccc(Oc3ccnc4cc(OC)c(OC)cc34)cn2)c(=O)c(-c2ccc(F)cc2)c1 [Example 10, N-(5((6,7-dimethoxyquinolin-4-yl)oxy)pyridin-2-yl)-5-(4-fluorophenyl)-4-oxo-1-propyl-1,4-dihydropyridine-3-carboxamide]
6.5	6.5	9.4	9.3	16	5	4.9	COc1cc2nccc(Oc3ccc(NC(=O)c4cn(CC(C)C)cc(-c5ccc(F)cc5)c4=O)nc3)c2cc1OC [Example 11, N-(5-((6,7-dimethoxyquinolin-4-yl)oxy)pyridin-2-yl)-5-(4-fluorophenyl)-1-isobutyl-4-oxo-1,4-dihydropyridine-3-carboxamide]
14.5	11.5	13.5	7.8	3	1	3.8	COc1cc2nccc(Oc3ccc(NC(=O)c4cn(CC(=O)N(C)C)cc(-c5ccc(F)cc5)c4=O)nc3)c2cc1OC [Example 23, N-(5-((6,7-dimethoxyquinolin-4yl)oxy)pyridin-2-yl)-1-(2-(dimethylamino)-2-oxoethyl)-5-(4-fluorophenyl)-4-oxo-1,4-dihydropyridine-3-carboxamide]
3.3	4.4	11.6	5.7	5	2	6	COc1cc2nccc(Oc3ccc(NC(=O)c4cn(CC(=O)N(C)C)cc(-c5ccc(F)cc5F)c4=O)nc3)c2cc1OC [Example 13, 5-(2,4-difluorophenyl)-N-(5((6,7-dimethoxyquinolin-4-yl)oxy)pyridin-2-yl)-1-(2-(dimethylamino)-2-oxoethyl)-4-oxo-1,4-dihydropyridine-3-carboxamide]
6.1	5.4	8.1	7.7	9	4	6	CCC(CC)n1cc(C(=O)Nc2ccc(Oc3ccnc4cc(OC)c(OC)cc34)cn2)c(=O)c(-c2ccc(F)cc2F)c1 [Example 16, 5-(2,4-difluorophenyl)-N-(5-((6,7-dimethoxyquinolin-4yl)oxy)pyridin-2-yl)-4-oxo-1-(pentan-3-yl)-1,4-dihydropyridine-3-carboxamide]
6.5	12.5	19.2	17	5	7	9.1	COc1cc2nccc(Oc3ccc(NC(=O)c4c[nH]cc(-c5ccc(F)cc5)c4=O)nc3)c2cc1OC [Example 26, N-(5-((6,7-dimethoxyquinolin-4yl)oxy)pyridin-2-yl)-5-(4-fluorophenyl)-4-oxo-1,4-dihydropyridine-3-carboxamide]
20.4	18.7	31	51.3	10	10	29.2	COc1cc2nccc(Oc3ccc(NC(=O)c4cn(C(C)C)cc(-c5ccc(F)c(Cl)c5)c4=O)nc3)c2cc1OC [Example 21, 5-(3-chloro-4-fluorophenyl)-N-(5-((6,7-dimethoxyquinolin-4-yl)oxy)pyridin-2-yl)-1-isopropyl-4-oxo-1,4-dihydropyridine-3-carboxamide]
8.1	9.6	16.1	16.6	4	2	5.4	COc1cc2nccc(Oc3ccc(NC(=O)c4cn(C(C)C)cc(-c5ccc(Cl)cc5)c4=O)nc3)c2cc1OC [Example 5, 5-(4-chlorophenyl)-N-(5-((6,7-dimethoxyquinolin-4-yl)oxy)pyridin-2-yl)-1-isopropyl-4-oxo-1,4-dihydropyridine-3-carboxamide]
4.2	4.7	7.4	6.4	3	1	4.7	CCn1cc(C(=O)Nc2ccc(Oc3ccnc4cc(OC)c(OC)cc34)cn2)c(=O)c(-c2ccc(F)cc2)c1 [Example 3]
9.4	11.9	14.6	15.8	5	2	8.8	COc1cc2c(Oc3ccc(NC(=O)c4cn(C(C)C)c(C)c(-c5ccc(F)cc5)c4=O)nc3)ccnc2cc1F [Example 48, N-(5-((7-fluoro-6-methoxyquinolin-4yl)oxy)pyridin-2-yl)-5-(4-fluorophenyl)-1-isopropyl-6-methyl-4-oxo-1,4-dihydropyridine-3-carboxamide]
3.2	1.9	4.3	5.2	6	3	3	COc1cc2c(Oc3ccc(NC(=O)c4cn(C(C)C)cc(-c5ccc(F)cc5)c4=O)nc3)ccnc2cc1OCCCN1CCOCC1 [Example 56, 5-(4-fluorophenyl)-1-isopropyl-N-(5-((6-methoxy-7-(3-morpholinopropoxy)quinolin-4-yl)oxy)pyridin-2-yl)-4-oxo-1,4-dihydropyridine-3-carboxamide]
2.2	3.5	7.7	5.3	2	1	2.7	COc1cc2nccc(Oc3ccc(NC(=O)c4cn(C(C)C)cc(-c5ccc(F)cc5)c4=O)cn3)c2cc1OC [Example 58, N-(6-((6,7-dimethoxyquinolin-4-yl)oxy)pyridin-3-yl)-5-(4-fluorophenyl)-1-isopropyl-4-oxo-1,4-dihydropyridine-3-carboxamide]
